Experimental data as given in PMC3361238, “The Effects of Addition of Mononucleotides on Sma nuc Endonuclease Activity” (The Scientific World Journal, 2012).
pKi: −log10 of the molar value.

Columns and labels:
[1] = target: T1, Sma nuc endonuclease (isoform Sm2) (Serratia marcescens, UniProt P13717); assay: hyperchromic RNA hydrolysis assay at […] nm; Cornish-Bowden plot S/V against [I]; format: biochemical; conditions: RNA substrate 0.03-0.18 mM, 50 mM Tris-HCl pH 8.5, MgSO4 1.2-7.2 mM, 37 °C; uncompetitive
T1 construct: gene nucA; Sm2 known as the full 245-residue mature form (signal peptide removed)
T1 sequence (P13717 22-266): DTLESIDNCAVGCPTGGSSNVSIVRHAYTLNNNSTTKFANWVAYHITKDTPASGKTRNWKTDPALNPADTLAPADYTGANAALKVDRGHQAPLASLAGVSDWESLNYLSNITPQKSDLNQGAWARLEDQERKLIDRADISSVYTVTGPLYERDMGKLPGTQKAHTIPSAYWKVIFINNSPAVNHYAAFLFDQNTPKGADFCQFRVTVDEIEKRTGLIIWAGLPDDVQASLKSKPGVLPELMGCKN

[2] = target: T1, Sma nuc endonuclease (isoform Sm2); assay: hyperchromic RNA hydrolysis assay at […] nm; secondary double reciprocal plot of Lineweaver-Burk segments; format: biochemical

SMILES | Ki [1] | pKi [2]
Nc1ccn([C@@H]2O[C@H](COP(=O)(O)O)[C@@H](O)[C@H]2O)c(=O)n1 [CMP] | 86.2 µM | 
Nc1nc2c(ncn2[C@@H]2O[C@H](COP(=O)(O)O)[C@@H](O)[C@H]2O)c(=O)[nH]1 [GMP] | 229 µM | 
O=c1ccn([C@@H]2O[C@H](COP(=O)(O)O)[C@@H](O)[C@H]2O)c(=O)[nH]1 [UMP] | 310.7 µM | 
Nc1ncnc2c1ncn2[C@H]1C[C@H](O)[C@@H](COP(=O)(O)O)O1 [dAMP] |  | 4.22
Nc1ncnc2c1ncn2[C@@H]1O[C@H](COP(=O)(O)O)[C@@H](O)[C@H]1O [AMP] |  | 4.12
